Among the test systems are Yersinia ruckeri VI-3629; Listeria grayi DSM 20601; Escherichia coli D31; Escherichia coli AB94012; Streptococcus uberis; Leuconostoc lactis; Listeria innocua; Micrococcus luteus; Pasteurella multocida; Staphylococcus aureus; Escherichia coli; Bacillus cereus.
Holding throughout (experiment): ≥ marks a high value that may be exact or a test limit, other limits are often not marked, values filed in µg/mL are converted to µM
Assay [1] deals with Escherichia coli ATCC 25922.
For assay [2], the system named is Planococcus citreus NCIMB 1493.
Assay [3] deals with Vibrio anguillarum NCIMB 2129.
For assay [4], the system named is Micrococcus luteus ATCC 4698.
Assay [5] has as its system Corynebacterium glutamicum ATCC 13032.
Assay [6] concerns Staphylococcus aureus ATCC 9144.
Assay [7] has as its system Vibrio anguillarum VI-F258-3.
Assay [8] relates to Vibrio anguillarum NCIMB 2133.
Assay [9] concerns Aeromonas salmonicida NCIMB 1102.
The subject of assay [10] is Yersinia ruckeri NCIMB 2196.
In assay [11] the test system is Psychrobacter immobilis NCIMB 308.
The test system of assay [12] is Salmonella enterica subsp. enterica serovar Typhimurium ATCC 14028.
In assay [13] the test system is Salmonella enterica subsp. enterica serovar Typhimurium ATCC 700408.
For assay [14], the system named is Klebsiella pneumoniae ATCC 13883.
Assay [15] relates to Staphylococcus aureus ATCC 25923.
Assay [16] has as its system Staphylococcus aureus ATCC 43300.
Assay [17] relates to Listeria monocytogenes ATCC 19115.
Assay [18] relates to Staphylococcus aureus ATCC BAA-39.
Assay [19] concerns Staphylococcus aureus P1383.
Assay [20] deals with Staphylococcus epidermidis P1111.
The test system of assay [21] is Listeria monocytogenes DSM 20600.
In assay [22] the test system is Micrococcus luteus DSM 20030.
Assay [23] has as its system Micrococcus luteus AB93113.
The test system of assay [24] is Staphylococcus aureus P1386.
The subject of assay [25] is Bacillus thuringiensis AB92037.
Assay [26] concerns Staphylococcus aureus P1374.
In assay [27] the test system is Staphylococcus epidermidis P1389.
In assay [28] the test system is Pseudomonas aeruginosa AB93066.
In assay [29] the test system is Staphylococcus aureus AB94004.
In assay [30] the test system is Listeria fleischmannii DSM 24998.
For assay [31], the system named is Staphylococcus aureus DSM 2569.
The subject of assay [32] is Staphylococcus aureus P1381.
Assay [33] has as its system Bacillus subtilis AB91021.
Assay [34] has as its system Staphylococcus aureus P1369.
Assay [35] has as its system Staphylococcus epidermidis.
The test system of assay [36] is Batrachochytrium dendrobatidis.

In brackets after ≈: the same amount, converted by molar mass. Some results are limits rather than exact numbers.

As to `CC[C@H](C)[C@H](NC(=O)[C@H](CC(C)C)NC(=O)CNC(=O)[C@@H](NC(=O)[C@@H](NC(=O)[C@H](Cc1cnc[nH]1)NC(=O)[C@H](Cc1cnc[nH]1)NC(=O)[C@H](CC(C)C)NC(=O)[C@@H](N)Cc1ccccc1)[C@@H](C)CC)C(C)C)C(=O)N[C@@H](Cc1cnc[nH]1)C(=O)N[C@@H](Cc1cnc[nH]1)C(=O)NCC(=O)N[C@@H](CC(C)C)C(=O)N[C@@H](CO)C(=O)N[C@@H](CC(C)C)C(=O)N[C@@H](Cc1ccccc1)C(=O)NCC(=O)N[C@@H](CC(=O)O)C(=O)N[C@@H](CCCN=C(N)N)C(=O)N[C@@H](C)C(=O)N[C@@H](CC(=O)O)C(=O)O` [FLHHIVGLIHHGLSLFGDRAD], the minimum inhibitory concentration (MIC) is greater than 10 µM in [1]; 10 µM (≈ 23.5 µg/mL) in assay [2]; 10 µM (≈ 23.5 µg/mL) in assay [3]; 10 µM (≈ 23.5 µg/mL) in [4]; 10 µM (≈ 23.5 µg/mL) in assay [5]; 10 µM (≈ 23.5 µg/mL) in assay [6]. The MIC in [7] was determined as 10 µM (≈ 23.5 µg/mL); in assay [8] it was 10 µM (≈ 23.5 µg/mL); in the assay on Yersinia ruckeri VI-3629 it was 10 µM (≈ 23.5 µg/mL); in [9], 10 µM (≈ 23.5 µg/mL); in [10] it was 3.54 µM (≈ 8.33 µg/mL); in assay [11], 3.54 µM (≈ 8.33 µg/mL).
With `CC(C)C[C@H](NC(=O)[C@H](CCCN=C(N)N)NC(=O)CNC(=O)[C@H](CCC(N)=O)NC(=O)[C@@H]1CCCN1C(=O)[C@H](CC(C)C)NC(=O)[C@H](CCCCN)NC(=O)[C@H](Cc1ccccc1)NC(=O)[C@@H](NC(=O)[C@@H]1CCCN1C(=O)[C@H](CCC(N)=O)NC(=O)[C@H](CO)NC(=O)[C@H](Cc1ccccc1)NC(=O)[C@H](CCCN=C(N)N)NC(=O)[C@@H](N)CCC(N)=O)[C@@H](C)O)C(=O)N[C@H](C(=O)N[C@@H](CC(C)C)C(=O)N[C@@H](CO)C(=O)N[C@@H](CCCN=C(N)N)C(=O)N[C@@H](CCCCN)C(=O)N[C@@H](Cc1ccccc1)C(=O)N[C@@H](CCCN=C(N)N)C(=O)O)[C@@H](C)O` [QRFSQPTFKLPQGRLTLSRKFR], the minimal inhibitory concentration (MIC) in assay [12] turned out to be 9.29 µM (≈ 25 µg/mL); in assay [1], 9.29 µM (≈ 25 µg/mL); in [13], 9.29 µM (≈ 25 µg/mL); in assay [14] it was 9.29 µM (≈ 25 µg/mL); in assay [15], 37.1 µM (≈ 100 µg/mL); in assay [16], 37.1 µM (≈ 100 µg/mL). Further, the MIC was 9.29 µM (≈ 25 µg/mL) in assay [17] and no less than 37.1 µM in [18].
As to `CC[C@H](C)[C@H](NC(=O)[C@H](C)NC(=O)[C@H](CO)NC(=O)[C@H](CCCCN)NC(=O)[C@@H](NC(=O)CNC(=O)[C@H](CCC(=O)O)NC(=O)[C@H](Cc1c[nH]c2ccccc12)NC(=O)[C@H](CC(C)C)NC(=O)[C@H](CCCCN)NC(=O)CNC(=O)[C@H](Cc1c[nH]c2ccccc12)NC(=O)[C@H](Cc1ccccc1)NC(=O)CN)C(C)C)C(N)=O` [GFWGKLWEGVKSAI], the MIC in assay [19] was found to be 7.92 µM (≈ 12.5 µg/mL); in [20], 3.96 µM (≈ 6.25 µg/mL); in [21] it was 8 µM (≈ 12.6 µg/mL); in the assay on Listeria grayi DSM 20601, 4 µM (≈ 6.31 µg/mL); in assay [22], 2 µM (≈ 3.15 µg/mL); in [23], 15.8 µM (≈ 25 µg/mL). The MIC in [24] was 7.92 µM (≈ 12.5 µg/mL); against Escherichia coli D31 it was 15 µM (≈ 23.7 µg/mL); in [25], 31.7 µM (≈ 50 µg/mL); in [26], 3.96 µM (≈ 6.25 µg/mL); in [27], 7.92 µM (≈ 12.5 µg/mL); in assay [28], no less than 63.4 µM. Besides, the MIC in assay [29] was found to be 3.96 µM (≈ 6.25 µg/mL); in assay [30], 4 µM (≈ 6.31 µg/mL); in [31], 15 µM (≈ 23.7 µg/mL); in the assay with Escherichia coli AB94012, 31.7 µM (≈ 50 µg/mL); in assay [32] it was 15.8 µM (≈ 25 µg/mL); in assay [33] it was 15.8 µM (≈ 25 µg/mL). In assay [34], this compound displayed a minimum inhibitory concentration (MIC) of 3.96 µM (≈ 6.25 µg/mL).
With `CC[C@H](C)[C@H](NC(=O)CNC(=O)[C@H](CCC(=O)O)NC(=O)[C@@H](NC(=O)[C@@H](NC(=O)CNC(=O)[C@H](CO)NC(=O)[C@H](C)NC(=O)[C@H](CC(C)C)NC(=O)[C@H](CC(=O)O)NC(=O)CNC(=O)[C@H](C)NC(=O)[C@H](C)NC(=O)[C@H](CO)NC(=O)[C@H](CCCCN)NC(=O)[C@@H](NC(=O)[C@H](CCCCN)NC(=O)[C@H](CCC(N)=O)NC(=O)[C@H](Cc1c[nH]c2ccccc12)NC(=O)[C@H](CC(C)C)NC(=O)CN)[C@@H](C)CC)[C@@H](C)CC)C(C)C)C(=O)N[C@@H](CCCCN)C(=O)N[C@@H](CO)C(N)=O` [GLWQKIKSAAGDLASGIVEGIKS], the MIC is no less than 42.9 µM against Streptococcus uberis; no less than 42.9 µM in assay [35]; no less than 42.9 µM in the assay on Leuconostoc lactis; no less than 42.9 µM against Listeria innocua; 5.15 µM (≈ 12 µg/mL) in the assay with Micrococcus luteus; no less than 42.9 µM in the assay with Pasteurella multocida. Also, the minimal inhibitory concentration (MIC) in the assay with Staphylococcus aureus is greater than 42.9 µM; in the assay with Escherichia coli, 10.7 µM (≈ 25 µg/mL); with Bacillus cereus, no less than 42.9 µM; in assay [36] it was no less than 200 µM.

The values are drawn from DBAASP.
